Assays:
[1] = Growth inhibition of multidrug-resistant human 2780AD cells; type: functional, cell-based; details: A2780 ADR
[2] = tested on: A2780; assay: Growth inhibition of human A2780 cells; type: functional, cell-based
[3] = molecular target: T1, ATP-dependent translocase ABCB1 (Homo sapiens, UniProt P08183); assay: Inhibition of Pgp in multidrug-resistant human 2780AD cells assessed as calcein accumulation at 0.25 ug/mL relative to control; type: cell-based; design: scale not given: the % may be the effect or the level left; details: a2780 adr
[4] = molecular target: T1, ATP-dependent translocase ABCB1; assay: Inhibition of Pgp in multidrug-resistant human 2780AD cells assessed as calcein accumulation at 25 ug/mL relative to control; type: cell-based; design: scale not given: the % may be the effect or the level left; details: a2780 adr
[5] = Growth inhibition of human WI38 cells; type: cell-based; details: WI-38
[6] = tested on: WI-38 VA13; assay: Growth inhibition of human VA13 cells; type: functional, cell-based
[7] = tested on: HepG2; assay: Growth inhibition of human HepG2 cells; type: functional, cell-based
[8] = molecular target: T1, ATP-dependent translocase ABCB1; assay: Inhibition of Pgp in multidrug-resistant human 2780AD cells assessed as vincristine accumulation at 0.1 ug/mL relative to control; type: cell-based; design: scale not given: the % may be the effect or the level left; details: a2780 adr
[9] = molecular target: T1, ATP-dependent translocase ABCB1; assay: Inhibition of Pgp in multidrug-resistant human 2780AD cells assessed as calcein accumulation at 2.5 ug/mL relative to control; type: cell-based; design: scale not given: the % may be the effect or the level left; details: a2780 adr
[10] = molecular target: T1, ATP-dependent translocase ABCB1; assay: Inhibition of Pgp in multidrug-resistant human 2780AD cells assessed as vincristine accumulation at 1.0 ug/mL relative to control; type: cell-based; design: scale not given: the % may be the effect or the level left; details: a2780 adr
[11] = molecular target: T1, ATP-dependent translocase ABCB1; assay: Inhibition of Pgp in multidrug-resistant human 2780AD cells assessed as vincristine accumulation at 10 ug/mL relative to control; type: cell-based; design: scale not given: the % may be the effect or the level left; details: a2780 adr
[12] = molecular target: T1, ATP-dependent translocase ABCB1; assay: Inhibition of Pgp in multidrug-resistant human 2780AD cells assessed as vincristine accumulation at 0.1 ug/mL relative to verapamil; type: cell-based; design: scale not given: the % may be the effect or the level left; details: a2780 adr
[13] = molecular target: T1, ATP-dependent translocase ABCB1; assay: Inhibition of Pgp in multidrug-resistant human 2780AD cells assessed as vincristine accumulation at 1.0 ug/mL relative to verapamil; type: cell-based; design: scale not given: the % may be the effect or the level left; details: a2780 adr
[14] = molecular target: T1, ATP-dependent translocase ABCB1; assay: Inhibition of Pgp in multidrug-resistant human 2780AD cells assessed as vincristine accumulation at 10 ug/mL relative to verapamil; type: cell-based; design: scale not given: the % may be the effect or the level left; details: a2780 adr
[15] = tested on: A2780; assay: Cytotoxicity against human A2780 cells assessed as cell viability at 0.2 uM; type: functional; details: read-out: Activity
[16] = tested on: A2780; assay: Cytotoxicity against human A2780 cells assessed as cell viability at 2 uM; type: functional; details: read-out: Activity
[17] = tested on: A2780; assay: Cytotoxicity against human A2780 cells assessed as cell viability at 10 uM; type: functional; details: read-out: Activity
[18] = Cytotoxicity against multidrug-resistant human 2780AD cells assessed as cell viability at 0.2 uM; type: functional; details: A2780 ADR, read-out: Activity
[19] = Cytotoxicity against multidrug-resistant human 2780AD cells assessed as cell viability at 2 uM; type: functional; details: A2780 ADR, read-out: Activity
[20] = Cytotoxicity against multidrug-resistant human 2780AD cells assessed as cell viability at 10 uM; type: functional; details: A2780 ADR, read-out: Activity

T1 sequence (P08183 whole entry): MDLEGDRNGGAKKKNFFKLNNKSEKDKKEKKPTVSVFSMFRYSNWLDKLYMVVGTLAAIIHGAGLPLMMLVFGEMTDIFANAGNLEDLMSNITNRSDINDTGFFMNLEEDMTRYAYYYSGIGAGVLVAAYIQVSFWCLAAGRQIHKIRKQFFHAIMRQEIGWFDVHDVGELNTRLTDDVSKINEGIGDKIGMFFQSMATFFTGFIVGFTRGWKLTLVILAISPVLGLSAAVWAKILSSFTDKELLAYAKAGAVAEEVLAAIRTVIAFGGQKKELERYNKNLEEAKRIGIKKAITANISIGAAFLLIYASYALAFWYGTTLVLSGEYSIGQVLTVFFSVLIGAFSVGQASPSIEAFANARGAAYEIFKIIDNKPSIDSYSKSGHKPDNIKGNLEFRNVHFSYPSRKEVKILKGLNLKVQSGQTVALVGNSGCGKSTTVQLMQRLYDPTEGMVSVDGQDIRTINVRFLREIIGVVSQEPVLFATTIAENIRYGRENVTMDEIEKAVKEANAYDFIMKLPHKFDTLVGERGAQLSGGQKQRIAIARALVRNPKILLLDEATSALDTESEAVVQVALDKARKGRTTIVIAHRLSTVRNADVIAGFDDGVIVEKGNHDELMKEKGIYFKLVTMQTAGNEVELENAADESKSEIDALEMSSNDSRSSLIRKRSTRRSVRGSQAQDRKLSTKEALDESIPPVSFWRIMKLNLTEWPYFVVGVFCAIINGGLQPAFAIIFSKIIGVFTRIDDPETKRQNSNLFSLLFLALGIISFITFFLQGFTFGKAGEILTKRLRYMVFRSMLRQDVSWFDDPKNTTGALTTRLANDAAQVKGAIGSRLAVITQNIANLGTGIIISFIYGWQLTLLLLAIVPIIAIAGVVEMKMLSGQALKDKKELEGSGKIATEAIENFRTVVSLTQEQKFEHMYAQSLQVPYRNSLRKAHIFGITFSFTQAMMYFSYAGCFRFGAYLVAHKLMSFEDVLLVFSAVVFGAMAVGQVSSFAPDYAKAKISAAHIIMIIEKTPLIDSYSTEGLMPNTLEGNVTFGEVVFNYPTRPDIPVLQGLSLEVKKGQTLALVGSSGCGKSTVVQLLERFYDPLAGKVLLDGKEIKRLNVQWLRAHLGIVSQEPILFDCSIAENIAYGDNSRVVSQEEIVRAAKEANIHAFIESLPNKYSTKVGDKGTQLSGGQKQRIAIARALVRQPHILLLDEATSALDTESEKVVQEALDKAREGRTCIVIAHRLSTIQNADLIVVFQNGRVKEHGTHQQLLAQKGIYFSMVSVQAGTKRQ

SMILES	IC50 [2]	Activity [3]	Activity [4]	IC50 [7]	Activity [8]	Activity [9]	Activity [10]	Activity [11]	Activity [12]	Activity [13]	Activity [14]	IC50 [1]	IC50 [5]	IC50 [6]	viability at 0.2 µM [15]	viability at 2 µM [16]	viability at 10 µM [17]	viability at 0.2 µM [18]	viability at 2 µM [19]	viability at 10 µM [20]
CC(=O)O[C@H]1C(=O)[C@@]2(C)[C@H]([C@H](OC(=O)c3ccccc3)[C@]3(O)C[C@H](OC(=O)[C@H](O)[C@@H](NC(=O)c4ccccc4)c4ccccc4)C(C)=C1C3(C)C)[C@]1(OC(C)=O)CO[C@@H]1C[C@@H]2O [PACLITAXEL]												183 µM								
C=C1[C@@H](OC(C)=O)CC[C@@]2(C)C[C@H](OC(C)=O)C3=C(C)C[C@H](O)[C@@H]([C@@H](OC(C)=O)[C@H]12)C3(C)C		104%	148%	216 µM	102%	86%	147%	242%	94%	79%	53%		133 µM	80 µM	97%	95%	20%	101%	96%	77%

Second part, led by results:

IC50 [2]	Activity [3]	Activity [4]	IC50 [7]	Activity [8]	Activity [9]	Activity [10]	Activity [11]	Activity [12]	Activity [13]	Activity [14]	SMILES	IC50 [1]	IC50 [5]	IC50 [6]	viability at 0.2 µM [15]	viability at 2 µM [16]	viability at 10 µM [17]	viability at 0.2 µM [18]	viability at 2 µM [19]	viability at 10 µM [20]
3.1 nM											CC[C@]1(O)C[C@H]2CN(CCc3c([nH]c4ccccc34)[C@@](C(=O)OC)(c3cc4c(cc3OC)N(C=O)[C@H]3[C@@](O)(C(=O)OC)[C@H](OC(C)=O)[C@]5(CC)C=CCN6CC[C@]43[C@@H]65)C2)C1 [VINCRISTINE]	0.311 µM								
5.7 nM											COc1cccc2c1C(=O)c1c(O)c3c(c(O)c1C2=O)C[C@@](O)(C(=O)CO)C[C@@H]3O[C@H]1C[C@H](N)[C@H](O)[C@H](C)O1 [DOXORUBICIN]	0.298 µM								
6100 nM	107%	190%	15.7 µM	121%	132%	272%	527%	111%	146%	116%	C=C1[C@@H](OC(C)=O)CC[C@@]2(C)C[C@H](O)C3=C(C)C[C@H](OC(=O)/C=C/c4ccccc4)[C@@H]([C@@H](OC(C)=O)[C@H]12)C3(C)C	8 µM	13.5 µM	37.4 µM	89%	74%	27%	105%	86%	38%
